Where two headings read alike, the source gives them in different places.

The nature of data set [1]: Thermodynamic solubility measurements. In kind it is physicochemical. The conditions noted are these: thermodynamic from solid. From the text: This is expected to facilitate dissolution in the stomach. Depending on the substitution pattern they may also be well soluble at higher pH values (Brunschweiger et al., [2014]). In the present study we measured thermodynamic solubility of only very few compounds exemplarily (14a-e, 14g, 15f,g) and confirmed their high solubility at pH 1 (see Table S1 in Supplementary Material). Most of these compounds were still soluble at pH 7.4. The best soluble derivative was the 3-ethyl-1-methyl-8-m-fluorobenzyl derivative 14g with solubilities of >1.5 g/L (4.2 mM) at pH 1, 50 mg/L (0.14 mM) at pH 4, and 40 mg/L ([…]) at pH 7.4.
Table S1. Solubility of selected compounds at three different pH values (in mg/mL).a
Compound pH 1 pH 4 pH 7.4
adetermined by thermodynamic solubility measurements.

Data set [2] concerns the target T1, human A2A AR (Homo sapiens, UniProt P29274).
T1 construct: expressed in transfected cells; host or cells: CHO cells
As to the kind of experiment: Radioligand binding assay at human A2A AR vs. [^3H]MSX-2. The conditions noted are these: CHO cell membranes, n = 3, read-out: Ki ± SEM, A2A vs. [^3H]MSX-2. Summed up:
(§1)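 Competition binding; rat A1: brain cortex membranes; rat A2A: brain striatum membranes; human A1/A2A/A2B/A3: membranes from CHO cells each expressing one human subtype. Affinity only, no functional testing.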

For data set [3], the target named is T2, human A3 AR (Homo sapiens, UniProt P0DMS8).
T2 construct: expressed in transfected cells; host or cells: CHO cells
T2 sequence (P0DMS8 1-318): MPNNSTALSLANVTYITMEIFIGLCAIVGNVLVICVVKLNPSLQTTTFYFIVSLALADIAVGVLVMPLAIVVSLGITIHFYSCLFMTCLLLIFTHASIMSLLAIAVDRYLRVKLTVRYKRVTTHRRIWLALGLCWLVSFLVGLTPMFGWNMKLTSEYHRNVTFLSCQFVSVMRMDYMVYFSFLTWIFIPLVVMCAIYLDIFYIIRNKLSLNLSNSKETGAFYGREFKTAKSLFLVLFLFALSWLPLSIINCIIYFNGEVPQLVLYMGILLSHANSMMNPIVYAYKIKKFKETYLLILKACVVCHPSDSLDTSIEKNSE
Briefly: Radioligand binding assay at human A3 AR vs. [^3H]PSB-11. The conditions noted are these: for Ki: CHO cell membranes, n = 2 (n = 3 where marked a), read-out: Ki ± SEM, A3 vs. [^3H]PSB-11; for inhibition at 10 µM: at 10,000 nM, read-out: % inhibition of radioligand binding at indicated concentration, A3 vs. [^3H]PSB-11. Put shortly: as §1

Data set [4] has as its target T3, recombinant human MAO-A (Homo sapiens, UniProt P21397).
T3 construct: purchased Sigma-Aldrich M7316; host or cells: baculovirus-infected insect cells
T3 sequence (P21397 1-527): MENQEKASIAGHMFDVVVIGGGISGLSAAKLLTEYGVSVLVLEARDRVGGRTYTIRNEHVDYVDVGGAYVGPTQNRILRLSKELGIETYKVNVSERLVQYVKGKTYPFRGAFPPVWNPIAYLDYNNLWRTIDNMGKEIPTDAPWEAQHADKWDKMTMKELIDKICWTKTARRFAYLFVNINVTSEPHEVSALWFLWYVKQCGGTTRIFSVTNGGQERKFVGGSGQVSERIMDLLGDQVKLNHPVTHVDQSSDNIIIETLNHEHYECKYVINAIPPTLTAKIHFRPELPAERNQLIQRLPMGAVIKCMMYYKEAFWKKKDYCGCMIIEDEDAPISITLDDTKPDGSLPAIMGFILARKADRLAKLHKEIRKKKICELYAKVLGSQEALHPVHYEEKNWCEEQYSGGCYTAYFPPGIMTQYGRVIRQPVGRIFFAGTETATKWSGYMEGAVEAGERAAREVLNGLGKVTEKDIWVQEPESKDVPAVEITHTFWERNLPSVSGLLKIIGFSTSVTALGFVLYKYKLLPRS
Briefly: Monoamine oxidase assay (Amplex Red), MAO-A. Type of data set: biochemical. The conditions noted are these: for inhibition at 10 µM: at 10,000 nM, read-out: % inhibition at indicated concentration, Human MAO-A; for IC50: n = 3, read-out: IC50 ± SEM, Human MAO-A. Summed up: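 Inhibition was measured with an Amplex Red monoamine oxidase assay, using human MAO-A and MAO-B produced recombinantly in baculovirus-infected insect cells. For rat MAO-B, liver mitochondria-enriched fractions from male Sprague Dawley rats served as enzyme source.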

Setting [5] is: aqueous buffer, pH 4, thermodynamic solubility, read-out: Solubility, pH 4.
Where [6] appears, read: aqueous buffer, pH 7.4, thermodynamic solubility, read-out: Solubility, pH 7.4.
The mark [7] stands for this setting: simulated gastric fluid, pH 1, thermodynamic solubility, read-out: Solubility, pH 1.

T1 sequence (P29274 whole entry): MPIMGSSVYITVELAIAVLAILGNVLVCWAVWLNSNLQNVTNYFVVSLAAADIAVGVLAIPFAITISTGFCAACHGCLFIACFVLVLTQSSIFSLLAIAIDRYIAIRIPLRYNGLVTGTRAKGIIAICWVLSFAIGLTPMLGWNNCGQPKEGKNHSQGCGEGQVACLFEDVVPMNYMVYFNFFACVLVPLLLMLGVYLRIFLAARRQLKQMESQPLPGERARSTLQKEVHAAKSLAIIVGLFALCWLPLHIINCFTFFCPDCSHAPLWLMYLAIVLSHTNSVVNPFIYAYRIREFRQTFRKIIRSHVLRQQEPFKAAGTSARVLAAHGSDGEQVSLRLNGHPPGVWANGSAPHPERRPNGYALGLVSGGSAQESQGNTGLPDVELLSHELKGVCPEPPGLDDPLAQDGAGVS

For the molecule `CCn1c(=O)c2c(nc3n2CCN(Cc2ccccc2Br)C3)n(C)c1=O` [Compound 14a, 8-(2-bromobenzyl)-3-ethyl-1-methyl-6,7,8,9-tetrahydropyrazino[2,1-f]purine-2,4(1H,3H)-dione], the solubility – broadly, the concentration that dissolves in the medium under given conditions – in data set [1] (setting [5]) is 0.9 µg/mL; in data set [1] (setting [6]), 0.8 µg/mL; in data set [1] (setting [7]), 200 µg/mL. For the same molecule, the Ki (usually a dissociation constant, usually derived from enzyme kinetics or from competition with a known ligand) in data set [2] is 0.497 ± 0.062 µM; in data set [3], above 10 µM. The inhibition at 10 µM in data set [3] worked out at 36%.
With `CCn1c(=O)c2c(nc3n2CCN(Cc2cccc(Br)c2)C3)n(C)c1=O` [Compound 14b, 8-(3-bromobenzyl)-3-ethyl-1-methyl-6,7,8,9-tetrahydropyrazino[2,1-f]purine-2,4(1H,3H)-dione], the solubility in data set [1] (setting [5]) was 1 µg/mL; in data set [1] (setting [6]) it was 0.9 µg/mL; in data set [1] (setting [7]), 100 µg/mL. The inhibitory constant (Ki) in data set [3] was above 10 µM. For the same molecule, in data set [3], the inhibition at 10 µM was determined as 39%.
As for `CCn1c(=O)c2c(nc3n2CCN(Cc2ccc(Br)cc2)C3)n(C)c1=O` [Compound 14c, 8-(4-bromobenzyl)-3-ethyl-1-methyl-6,7,8,9-tetrahydropyrazino[2,1-f]purine-2,4(1H,3H)-dione], the solubility in data set [1] (setting [5]) was 6 µg/mL; in data set [1] (setting [6]), 3 µg/mL; in data set [1] (setting [7]) it was 1300 µg/mL. Moreover, in data set [4], the inhibition at 10 µM turned out to be 2%. Further, the 50% inhibitory concentration (IC50) (usually the concentration at which inhibition is half-maximal) in data set [4] is above 10 µM. Besides, the inhibitory constant (Ki) in data set [3] was 9.39 µM.
For `CCn1c(=O)c2c(nc3n2CCN(Cc2ccccc2C(F)(F)F)C3)n(C)c1=O` [Compound 14d, 3-ethyl-1-methyl-8-(2-(trifluoromethyl)benzyl)-6,7,8,9-tetrahydropyrazino[2,1-f]purine-2,4(1H,3H)-dione], the solubility was 1 µg/mL in data set [1] (setting [5]), below 0.5 µg/mL in data set [1] (setting [6]) and 200 µg/mL in data set [1] (setting [7]). For the same molecule, the inhibition at 10 µM in data set [4] turned out to be 5%. Also, the 50% inhibitory concentration (IC50) in data set [4] is above 10 µM. The Ki in data set [3] was 8.76 µM.
For `CCn1c(=O)c2c(nc3n2CCN(Cc2cccc(C(F)(F)F)c2)C3)n(C)c1=O` [Compound 14e, 3-ethyl-1-methyl-8-(3-(trifluoromethyl)benzyl)-6,7,8,9-tetrahydropyrazino[2,1-f]purine-2,4(1H,3H)-dione], the values for the solubility in data set [1] (setting [5]), in data set [1] (setting [6]) and in data set [1] (setting [7]) were 2 µg/mL, 2 µg/mL and 400 µg/mL, respectively. For the same molecule, the inhibition at 10 µM in data set [4] worked out at 12%; in data set [3] it was 38%. Besides, the IC50 in data set [4] is above 10 µM. In addition, the inhibition constant (Ki) in data set [2] is 1.78 µM; in data set [3] it was above 10 µM.
With `CCn1c(=O)c2c(nc3n2CCN(Cc2cccc(F)c2)C3)n(C)c1=O` [Compound 14g, 3-ethyl-8-(3-fluorobenzyl)-1-methyl-6,7,8,9-tetrahydropyrazino[2,1-f]purine-2,4(1H,3H)-dione], the solubility was 140 µM in data set [1] (aqueous solution, aqueous buffer, pH 4, molar value in brackets, read-out: solubility at pH 4); 50 µg/mL in data set [1] (aqueous solution, aqueous buffer, pH 4, read-out: solubility at pH 4); 84 µM in data set [1] (aqueous solution, aqueous buffer, pH 7.4, molar value in brackets, read-out: solubility at pH 7.4); 40 µg/mL in data set [1] (aqueous solution, aqueous buffer, pH 7.4, read-out: solubility at pH 7.4); above 4200 µM in data set [1] (aqueous solution, simulated gastric fluid, pH 1, molar value in brackets, read-out: solubility at pH 1); above 1500 µg/mL in data set [1] (aqueous solution, simulated gastric fluid, pH 1, read-out: solubility at pH 1). Moreover, the Ki in data set [3] was above 10 µM. In data set [3], the inhibition at 10 µM worked out at 24%.
On to `CCn1c(=O)c2c(nc3n2CCN(Cc2cccc(C(F)(F)F)c2)C3)n(CC)c1=O` [Compound 15g, 1,3-diethyl-8-(3-(trifluoromethyl)benzyl)-6,7,8,9-tetrahydropyrazino[2,1-f]purine-2,4(1H,3H)-dione], for which the solubility in data set [1] (setting [5]) was 2 µg/mL; in data set [1] (setting [6]), 2 µg/mL; in data set [1] (setting [7]), 600 µg/mL. The Ki is 0.277 ± 0.059 µM in data set [2] and above 10 µM in data set [3]. Moreover, the inhibition at 10 µM in data set [3] came to 36%.

These data come from publication PMC6028563, “Probing Substituents in the 1- and 3-Position: Tetrahydropyrazino-Annelated Water-Soluble Xanthine Derivatives as Multi-Target Drugs With Potent Adenosine Receptor Antagonistic Activity” (Frontiers in Chemistry, 2018).
